Reference: paper PMC11590367, “Characterization of novel small molecule inhibitors of estrogen receptor-activation function 2 (ER-AF2)” (Breast Cancer Research : BCR, 2024)

T1: ER-LBD (residues 298–554), recombinant, N-terminal His-tag (UniProt P03372 298-554, red fluorescent dye (Protein Labeling Kit RED-NHS 2nd Generation))
T1 construct: Kept with 20 µM E2 in lysis and assay buffers; also called recombinant ER-LBD; source: E. coli (BL21-DE3) with pRARE, purified (Ni-NTA, size exclusion s75), 50 µM E2 added during expression
T1 sequence (looked up): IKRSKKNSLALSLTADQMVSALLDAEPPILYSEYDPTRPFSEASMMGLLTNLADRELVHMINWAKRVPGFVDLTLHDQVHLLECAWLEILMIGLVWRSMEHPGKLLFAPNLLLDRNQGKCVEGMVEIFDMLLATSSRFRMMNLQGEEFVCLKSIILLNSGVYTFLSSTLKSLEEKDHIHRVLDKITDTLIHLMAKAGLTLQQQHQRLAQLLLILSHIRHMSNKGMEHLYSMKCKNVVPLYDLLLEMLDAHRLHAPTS


Assays:
[1] = tested on: ER transcriptional activity in T47D-KBluc cells; test: Luciferase transcriptional assay; type: cell-based; conditions: ER transcription, luciferase reporter, 1 nM E2, 24 h treatment, ± SD of 3 biological replicates
Protocol: T47D-KBluc cells or PC3m-luc cells were starved for 72 h and then seeded into 96-well plates at 20,000 or 5,000 cells/well, respectively. […] One day post-treatment, the media was removed, and cells were lysed with 65 µl of 1x passive lysis buffer (Promega #E1910). Following two freeze-thaw cycles, 20 µl of lysate were transferred to a white, 96-well flat bottom plate (Corning Life Sciences Cat#3912). 50 µl of luciferase reagent (Promega. Luciferase Assay System E1500) was added to each well, and luminescence was measured using the TECAN M200 Pro plate reader. E2 (1 nM), 4-hydroxytamoxifen (OHT) (4 nM), and DMSO (0.2%) were used as controls for this assay. […] E2 alone represented 100% transcriptional activation, while the 0.2% DMSO control represented 0% transcriptional activity. OHT was used as a positive control for an active compound.

[2] = tested on: T47D cells; test: PrestoBlue viability assay, T47D; type: cell-based; conditions: 1 nM E2, 72 h treatment, ± SD of 3 biological replicates
Protocol: (§1) T47D, MCF7, TamR3, and MDA-MB-231 cells were starved for 72 h and then seeded into black clear-bottom 96-well plates (Corning Life Sciences Cat#3904) at 20,000 cells/well (T47D, MCF7, TamR3) or 5,000 cells/well (MDA-MB-231). […] 20 µl of PrestoBlue Cell Viability Reagent (Thermo Fisher A13262) was added to each well and incubated at 37 °C for 1 h. Fluorescence intensity was measured using the TECAN F500 plate reader with emission and excitation wavelengths of […], respectively.

[3] = Precipitation in MST assay buffer; type: physicochemical; conditions: 2% DMSO, 0.03 to 1000 µM
Protocol: MST was used to validate the direct binding and measure the binding affinities between the lead compounds and the recombinant ER-LBD. ER-LBD was labeled with red fluorescent dye using a Protein Labeling Kit RED-NHS 2nd Generation (Nanotemper MO-L011) according to the manufacturer’s protocol. The compounds were serially diluted 1:2 in 100% DMSO from 50 to 0.0015 mM, then added to 10 nM of labeled ER protein in the assay buffer (25 mM Tris, pH 8.4, 150 mM NaCl, 20 µM E2, 0.1 mM PMSF, 0.05% Tween20) at final concentrations of 0.03 to 1000 µM. Recombinant proteins in cell free assays are not affected by DMSO concentrations up to 10%. A final concentration of 2% DMSO was chosen for MST as the compounds required this concentration to be soluble in the assay buffer. […] The corresponding data points were removed from the analysis. […] Each protein/compound mixture was then loaded into Monolith Premium Capillaries (Nanotemper MO-K025). All assays were conducted with medium MST power and 20% excitation power. Data analysis and Kd estimation were performed with the MO Affinity Analysis software from Nanotemper.

[4] = tested on: ER target genes (cyclinD1, CDC2, E2F, PR, pS2) in TamR3 cells; test: Real-time PCR of ER target genes, TamR3; type: cell-based; conditions: 1 µM Tamoxifen
Protocol: Total RNA was extracted using TRIzol, 72 h post-treatment. cDNA synthesis was conducted using the Maxima First Strand cDNA Synthesis Kit for RT-qPCR (Thermo K1641) according to the manufacturer’s protocol. RT-PCR was conducted on the QuantStudio 7 Pro instrument and expression fold change was calculated using 2−ΔΔCt method normalized to 18s.

[5] = tested on: MCF7 cells; test: PrestoBlue viability assay, MCF7; type: cell-based; conditions: Homo sapiens, 1 nM E2, 72 h treatment, ± SD of 3 biological replicates
Protocol: as §1

[6] = tested on: TamR3 cells; test: PrestoBlue viability assay, TamR3; type: cell-based; conditions: 1 nM E2, 72 h treatment, ± SD of 3 biological replicates
Protocol: as §1

[7] = tested on: MDA-MB-231 cells; test: PrestoBlue viability assay, MDA-MB-231; type: cell-based; conditions: dose response 50 to 0.01 µM, 1 nM E2
Protocol: as §1

[8] = target: T2, recombinant ER-LBD (residues 298–554) (Homo sapiens, UniProt P03372); test: Microscale thermophoresis (MST) direct binding; conditions: averaged from three independent assays, 20 µM E2 in buffer, read-out: Kd (binding affinity to ER-LBD)
T2 construct: The ER-LBD (residues 298–554) was cloned into pET28a bacterial expression plasmid; His-tag (N); made in house; host or cells: E. coli BL21-DE3 (with pRARE)
Protocol: The ER-LBD (residues 298–554) was cloned into pET28a bacterial expression plasmid with an N-terminal His-tag. pET28a-His-ER and pRARE were transformed into E. coli (BL21-DE3). Bacteria were grown at 37 [drawing 1] C overnight, and then diluted 1:20 the following day in LB media and grown at 37 [drawing 2] C until the OD600 reached 0.5. Protein expression was induced with 1 mM IPTG, and 50 µM E2 was added to the media. Cells were then grown for 5 h at 25 °C. Bacterial pellets were collected by centrifugation at 13,000 rpm for 7 min. Pellets were resuspended in lysis buffer (25 mM Tris, pH 8.4, 150 mM NaCl, 20 µM E2, 1 mM DTT, 0.1 mM PMSF, cOmplete protease inhibitor (Roche)) then sonicated and centrifuged to obtain the soluble extracts. ER-LBD was purified using affinity chromatography with Ni-NTA agarose resin. The presence of the ER-LBD in eluted fractions was confirmed by SDS-PAGE and validated by mass spectrometry. The eluted protein was further purified by size exclusion chromatography (s75), and fractions containing the ER-LBD protein were pooled and concentrated using Amicon Ultra centrifugal filters (3 K MWCO).
MST was used to validate the direct binding and measure the binding affinities between the lead compounds and the recombinant ER-LBD. […]

[9] = target: T3, ER-LBD AF2 site / PGC1a coactivator peptide (Homo sapiens, UniProt P03372); test: TR-FRET coactivator peptide displacement (LanthaScreen ER alpha Coactivator Assay); type: binding; conditions: 4 nM E2, 4 h
T3 construct: The assay utilizes GST-tagged ER-LBD (final concentration, 7.3 nM); purchased Thermo Fisher A15885
Protocol: We performed a TR-FRET assay to assess whether compounds displace the AF2 peptide from the ER-AF2 pocket using the LanthaScreen TR-FRET ER alpha Coactivator Assay Kit (Thermo Fisher, A15885). The assay utilizes GST-tagged ER-LBD (final concentration, 7.3 nM), terbium-labeled GST-antibody (final concentration, 5 nM), and a fluorescein-coactivator peptide, PGC1a (final concentration, 250 nM) in the presence of 4 nM E2. The GST-antibody, ER protein and fluorescent peptide mixture was incubated with four concentrations of compound (500 µM, 167 µM, 56 µM, 18.5 µM) for 4 h. The sample was excited at 340 nm and read at 520 nm on a Syngergy Neo2 plate reader (BioTek).

[10] = target: T4, full length ERɑ protein, estrogen binding site (EBS) (Homo sapiens, UniProt P03372); test: E2-displacement assay (PolarScreen fluorescence polarization); conditions: fluorescence polarization, 1, 10 and 50 µM
T4 construct: full length ERɑ protein was incubated with Fluormone ES2 Green; purchased ThermoFisher A15882
Protocol: The E2 displacement assay was performed using the PolarScreen Estrogen Receptor Alpha Competitor Assay, Green (ThermoFisher A15882) according to the manufacturer’s protocol. In brief, full length ERɑ protein was incubated with Fluormone ES2 Green (Fluormone Tracer) in the ES2 screening buffer in a black bottom 384-well plate (Corning 3573) in the presence of either 1, 10, or 50 µM of test compounds. The final concentrations in the assay were 2% DMSO (consistent with the MST assay), 4.5 nM fluormone, and 40 nM ERɑ protein. 20 µl of the mixture were added to each well, with triplicates performed for each condition. The plate was incubated in the dark at room temperature for 4 h before fluorescence polarization was measured using a Synergy Neo2 plate reader (BioTek).

[11] = target: ER D538G/F404L mutant (Homo sapiens, UniProt P03372, D538G/F404L); test: Transcriptional activity of fulvestrant resistant mutant ER; type: cell-based; conditions: compared to DMSO
[12] = parameters: method as in earlier work; conditions: cited from earlier work
[13] = parameters: method as in earlier work; conditions: cited from earlier work; remark: listed apart in the source
[14] = target: T1, ER-LBD (residues 298–554), recombinant, …; test: MST; 10 nM RED-NHS labelled ER-LBD, ligand titrated; 25 mM Tris pH 8.4, 150 mM NaCl, 20 µM E2, 0.1 mM PMSF, 0.05% Tween20; medium MST power, 20% excitation power; Kd averaged from three independent assays; conditions: both partners purified

T4 sequence (P03372 whole entry): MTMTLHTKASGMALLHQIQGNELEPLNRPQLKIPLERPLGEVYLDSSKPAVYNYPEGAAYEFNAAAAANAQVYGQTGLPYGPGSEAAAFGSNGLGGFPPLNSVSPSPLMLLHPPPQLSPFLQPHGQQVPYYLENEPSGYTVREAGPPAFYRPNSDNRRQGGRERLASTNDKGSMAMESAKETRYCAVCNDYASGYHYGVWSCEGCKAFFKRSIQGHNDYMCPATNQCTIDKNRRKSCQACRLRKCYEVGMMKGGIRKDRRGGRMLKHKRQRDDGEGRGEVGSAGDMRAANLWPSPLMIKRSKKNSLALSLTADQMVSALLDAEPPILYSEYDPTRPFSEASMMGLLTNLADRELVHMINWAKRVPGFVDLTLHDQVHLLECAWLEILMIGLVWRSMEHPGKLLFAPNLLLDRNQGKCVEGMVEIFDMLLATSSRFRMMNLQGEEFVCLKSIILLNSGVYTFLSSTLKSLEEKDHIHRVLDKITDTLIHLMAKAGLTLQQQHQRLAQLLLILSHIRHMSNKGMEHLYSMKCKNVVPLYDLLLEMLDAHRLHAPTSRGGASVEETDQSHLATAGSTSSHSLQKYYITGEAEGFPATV
Sequence of ER D538G/F404L mutant (P03372 whole entry F404L/D538G): as the sequence (P03372 whole entry) above, with F404L, D538G counted along it

Molecule | IC50 ([1]; 24 h) [µM] | IC50 ([2]; Homo sapiens, T47D, 72 h) [µM] | Precipitation after addition of ER protein [3] | IC50 [5] [µM] | IC50 [6] [µM] | also measured
CCNC(=O)c1cccc(CNCc2cnc3c(C)cccn23)c1 [VPC-260709] | 13.8 ± 2.92 | 6.37 ± 3.3 | exhibited precipitation at 1000 and 500 µM |  |  | 
CC/C(=C(\c1ccccc1)c1ccc(OCCN(C)C)cc1)c1ccccc1 [Tamoxifen, tamoxifen, reference compound] |  |  |  |  |  | ER target gene expression in TamR3, tamoxifen alone [4]: increased target gene expression
Cc1cccn2c(CNCc3cccc(NC(=O)[C@@H]4CCCO4)c3)cnc12 [VPC-260962] | 10.8 | 8.9 |  | 16.4 ± 3.59 | 27.8 ± 7.99 | IC50 [1]: 10.8 ± 2.92 µM; IC50 [2]: 8.92 ± 2.81 µM; Effect on viability of ER-negative MDA-MB-231 cells [7]: minimal impact
Cc1cccn2c(CNCc3ccc(F)cc3F)cnc12 [VPC-260711] | 6.4 | 5.4 ± 1.23 | exhibited precipitation at 1000 and 500 µM | 18 ± 1.3 | 16.8 ± 2.07 | IC50 [1]: 6.36 ± 0.59 µM; Effect on viability of ER-negative MDA-MB-231 cells [7]: minimal impact
CC1CC(NC(=O)Nc2ccc(Oc3cccc(F)c3F)nc2)C(=O)N1c1cnn(C)c1 (stereo not drawn) [VPC-260950] | 12.4 ± 4.57 | 16 ± 6.53 |  |  | 21.4 ± 3.66 | 
O=C(NCc1ccc2occc2c1)Nc1ccc(OCC2CCCO2)cc1 (stereo not drawn) [VPC-260936] | 27.2 ± 6.44 | 10.6 ± 4.27 | exhibited precipitation at 1000 and 500 µM |  | 21.8 ± 6.51 | 
Cc1cccc(Oc2ccc(NC(=O)N[C@H]3C[C@H](CO)C3)cn2)c1C [VPC-260927] | 10.8 ± 3.85 | 13.8 ± 4.23 |  | 19.5 ± 2.16 | 24.4 ± 2.48 | Kd [8]: 13.2 ± 10.5 µM; Concentration at which a reduction of the FRET signal (PGC1⍺ peptide displacement) was observed [9]: 500 µM; Displacement of fluormone (fluorescent E2) from EBS [10]: displaces the fluormone at 1, 10 and 50 µM
O=C(Nc1cccc(CNCc2cnc3ccccn23)c1)C1CCCO1 (stereo not drawn) [VPC-260961] | 7.26 ± 0.73 |  |  | 18.7 ± 1.18 | 18.7 ± 1.15 | 
Cc1cccc(Oc2ccc(NC(=O)N3CCC(c4nnc[nH]4)C3)cn2)c1C (stereo not drawn) [VPC-260955] | 17.4 ± 1.12 | 18.6 ± 1.13 | exhibited precipitation at 1000 and 500 µM |  | 28.7 ± 1.3 | 
Cc1cccn2c(CNCc3cccc(Br)c3)cnc12 [VPC-260726] | 17.9 ± 3.51 | 11.2 ± 5.67 |  | 16.6 ± 1.47 | 13.9 ± 1.84 | 
Cc1cccn2c(CNCc3cccc(NC(=O)[C@H]4CCCO4)c3)cnc12 [VPC-260963] | 11.9 ± 3.62 | 19 ± 5.66 |  | 21.1 ± 4.67 | 16.2 ± 3.38 | 
C[C@]12CC[C@@H]3c4ccc(O)cc4C[C@@H](CCCCCCCCC[S+]([O-])CCCC(F)(F)C(F)(F)F)[C@H]3[C@@H]1CC[C@@H]2O (stereo partly drawn) [fulvestrant] |  |  |  |  |  | Transcriptional activity of mutant ER D538G/F404L [11]: increased the transcriptional activity; Solubility [12]: poor solubility; Oral bioavailability [13]: not orally bioavailable
EAEEPSLLKKLLLAPANTQ [coactivator peptide PGC1α (control peptide of the MST assay)] |  |  |  |  |  | Kd [14]: 16.6 ± 2.4 µM
